The target in test [1] is T1, SARS-CoV-2 PLpro (Severe acute respiratory syndrome coronavirus 2, UniProt P0DTD1).
T1 construct: The papain-like protease domain (PLpro) of SARS-CoV-2 (SCoV2)
Kind of test: IC50 inhibitory assay, fluorogenic substrate cleavage by PLpro. The test is classed as biochemical. The following applies: SARS-CoV-2 PLpro 0.1 μM; substrate 10 μM; pH 8.1; 37 °C; 10 min preincubation. The procedure: The inhibitory activities of compounds against SARS-CoV-2 PLpro were determined in a reaction buffer containing 20 mM HEPES, 40 mM NaCl, 5% glycerol, 2 mM DTT (freshly added before the measurements), pH 8.1, at 37 °C. A fluorescent substrate of SARS-CoV-2 PLpro (Z-Arg-leu-Arg-Gly-Gly-[…]AMC; Biosyntan, Berlin) was used, and the fluorescence signal of the cleaved substrate was monitored using a Tecan Spark® fluorescence spectrophotometer at an […] wavelength of 460/360 nm. SARS-CoV-2 PLpro (10 μL per well) was pipetted into a 96-well plate together with reaction buffer reaction buffer (50 μL per well, final enzyme concentration: 0.1 μM). Compounds (10 μL per well) were added at varying concentrations, and plates incubated at 37 °C for 10 mins. Finally, the reaction was initiated by adding 30 μL of the substrate (final concentration: 10 μM) dissolved in the reaction buffer.
FIG. 1: PROTAC and parent ligand for SARS-CoV-2 PLpro in a binary IC50 experiment. C10778A PROTAC (top left), comprising a SARS-CoV-2 PLpro targeting ligand C10778B (bottom left) connected to thalidomide via a C3 alkyl linker. IC50 values have been determined in an in vitro inhibitory binding assay whereby the fluorescence signal resulting from cleavage of a fluorogenic substrate by PLpro is measured. Inhibition of PLpro is associated with reduced cleavage of the fluorogenic substrate. […] Assay conditions: experiments were performed in 20 mM HEPES buffer containing 40 mM NaCl 5% glycerol, 2 mM DTT at pH 8.1. A fluorogenic substrate for PLpro (Z-Arg-leu-Arg-Gly-Gly-AMC) was used to determine the inhibition rate of compounds. Final DMSO concentration in each reaction was 1%. Measurements were performed in triplicate.

The subject of test [2] is SARS-CoV-2. Kind of test: Antiviral assay in infected Vero E6 cells (ATP quantification, Cell Titer Glo). The following applies: for inhibition at 10 µM: read-out: Antiviral Activity, 10 uM (cell viability assay), 10 uM; for inhibition at 50 µM: read-out: Antiviral Activity, 50 uM (cell viability assay), 50 uM. A general note: Cellular ATP, detected with luciferase, serves as a proxy for viable cell number.
Description: Vero E6 cells (2×10^4/well) were seeded in 96 well plates one day before the experiment. Pre-treatment, the medium was removed and compounds were added at concentrations varying from 0.1-100 μM. After 24 h incubation, the medium was removed and cells were infected with MOI 0.05 SARS-CoV-2 SARS-CoV2/ZG/297-20. After 1 h infection, the viruses were removed and the same concentration of compounds were added back into the cells. After 72 h incubation at 37 °C, EC50 measurements were made using ATP quantification (Cell Titer Glo).

The subject of test [3] is SARS-CoV-2. Kind of test: Plaque reduction assay in Vero E6 cells. In kind it is cell-based. The following applies: MOI 0.1. A general note: Plaque reduction counts the foci of infection that form in a cell layer.
[4] abbreviates: Severe acute respiratory syndrome coronavirus 2, Vero C1008, 72 h, Vero E6 cells, MOI 0.05, 72 h.

Consider 22 molecules from patent US20260364182A1, “PROTEOLYSIS-TARGETING CHIMERAS AGAINST THE PAPAIN-LIKE PROTEASE OF SARS-COV-2” (Tocris Cookson Limited, priority 2022, published 2026).

As usually defined, the IC50 is the point on the concentration scale where inhibition reaches its midpoint. A lower IC50 goes with greater potency in that assay. By EC50 is commonly meant the concentration at which the effect is half-maximal. `C[C@H](c1cccc2ccccc12)N1CCC(C(=O)NCc2cc(F)cc(NC(=O)N3CCN(CCCCCCCCOc4ccc5c(c4)C(=O)N(C4CCC(=O)NC4=O)C5=O)CC3)c2)CC1` (some centres unmarked) [TS516] gave an IC50 in test [1] of 10 to 25 µM. The response in test [2] (Severe acute respiratory syndrome coronavirus 2, Vero C1008, 72 h) was half-maximal at 4.4 µM (EC50). Further, in test [2] (setting [4]), the inhibition at 10 µM is below 50% and the inhibition at 50 µM was above 75%. Besides, the “plaque reduction (viable virus, in words)” value in test [3] is recorded as “efficiently reduces viable virus”.

`C[C@H](c1cccc2ccccc12)N1CCC(C(=O)NCc2cc(F)cc(NC(=O)N3CCN(CC4CCN(c5ccc6c(c5)C(=O)N(C5CCC(=O)NC5=O)C6=O)CC4)CC3)c2)CC1` (some centres unmarked) [TS535]: the IC50 in test [1] was 10 to 25 µM. For the same molecule, in test [2] (setting [4]), the inhibition at 10 µM was below 25% and the inhibition at 50 µM is below 75%.

`C[C@H](c1cccc2ccccc12)N1CCC(C(=O)NCc2cc(F)cc(NC(=O)N3CCN(CCCCC(=O)N4CCN(c5ccc(C6CCC(=O)NC6=O)cc5)CC4)CC3)c2)CC1` (some centres unmarked) [TS551] registered an IC50 in test [1] below 10 µM. Also, in test [2] (setting [4]), the inhibition at 10 µM was below 25% and the inhibition at 50 µM is below 50%.

For `Cc1ccc(NC2CCNCC2)cc1C(=O)N[C@H](C)c1cccc(-c2ccc(CNC(=O)CCCCNC(=O)COc3ccc(C4CCC(=O)NC4=O)cc3)s2)c1` (some centres unmarked) [Compound C10778F], in test [1], the IC50 is below 10 µM. In addition, in test [2] (setting [4]), the inhibition at 10 µM was below 25% and the inhibition at 50 µM was below 25%.

Regarding `Cc1ccc(NC(=O)CCCCOc2cc(-c3scnc3C)ccc2CNC(=O)[C@@H]2C[C@@H](O)CN2C(=O)[C@@H](NC(=O)C2(F)CC2)C(C)(C)C)cc1C(=O)N[C@H](C)c1cccc2ccccc12` [TS290], in test [1], the IC50 was above 25 µM. Moreover, in test [2] (setting [4]), the inhibition at 10 µM was below 0% and the inhibition at 50 µM was below 25%.

`C[C@H](c1cccc2ccccc12)N1CCC(C(=O)NCc2cc(F)cc(NC(=O)N3CCN(CCOCCOCCOCCOc4cccc5c4C(=O)N(C4CCC(=O)NC4=O)C5=O)CC3)c2)CC1` (some centres unmarked) [TS423]: the IC50 in test [1] is below 10 µM. Besides, in test [2] (setting [4]), the inhibition at 10 µM is below 25% and the inhibition at 50 µM is below 0%.

In test [1], `Cc1ccc(NC2CCNCC2)cc1C(=O)N[C@H](C)c1cccc(-c2ccc(CNC(=O)CCCNc3ccc4c(c3)C(=O)N(C3CCC(=O)NC3=O)C4=O)s2)c1` (some centres unmarked) [Compound C10778E] had an IC50 below 1 µM. Further, in test [2] (setting [4]), the inhibition at 10 µM was below 0% and the inhibition at 50 µM is below 0%.

In the case of `Cc1ccc(NC2CCNCC2)cc1C(=O)N[C@H](C)c1cccc(-c2ccc(CNC(=O)CCCCCNc3ccc4c(c3)C(=O)N(C3CCC(=O)NC3=O)C4=O)s2)c1` (some centres unmarked) [Compound C10778D], the IC50 in test [1] was below 1 µM. Moreover, in test [2] (setting [4]), the inhibition at 10 µM is below 0% and the inhibition at 50 µM is below 0%.

Molecule `Cc1ncsc1-c1ccc(CNC(=O)[C@@H]2C[C@@H](O)CN2C(=O)[C@@H](NC(=O)CCCCN2CCN(C(=O)Nc3cc(F)cc(CNC(=O)C4CCN([C@H](C)c5cccc6ccccc56)CC4)c3)CC2)C(C)(C)C)cc1` [TS558] registered an IC50 in test [1] below 10 µM. Further, in test [2] (setting [4]), the inhibition at 10 µM was below 0% and the inhibition at 50 µM was below 0%.

Take `Cc1ccc(NC2CCNCC2)cc1C(=O)N[C@H](C)c1cccc(-c2ccc(CNC(=O)CCCCCNC(=O)COc3ccc(C4CCC(=O)NC4=O)cc3)s2)c1` (some centres unmarked) [Compound C10778G]: in test [1], the IC50 was below 1 µM. For the same molecule, in test [2] (setting [4]), the inhibition at 10 µM is below 25% and the inhibition at 50 µM is below 25%.

The molecule `Cc1ccc(NC(=O)CCCCNc2cccc3c2CN(C2CCC(=O)NC2=O)C3=O)cc1C(=O)N[C@H](C)c1cccc2ccccc12` (some centres unmarked) [TS124] showed an IC50 in test [1] below 10 µM. In test [2] (setting [4]), the inhibition at 10 µM was below 0% and the inhibition at 50 µM is below 25%.

Take `C[C@H](c1cccc2ccccc12)N1CCC(C(=O)NCc2cc(F)cc(NC(=O)N3CCN(CCOc4ccc5c(c4)C(=O)N(C4CCC(=O)NC4=O)C5=O)CC3)c2)CC1` (some centres unmarked) [TS499]: the IC50 in test [1] is below 1 µM. In test [2] (setting [4]), the inhibition at 10 µM is below 25% and the inhibition at 50 µM is below 25%.

Turning to `C[C@H](c1cccc2ccccc12)N1CCC(C(=O)NCc2cc(F)cc(NC(=O)N3CCN(CCOc4cccc5c4C(=O)N(C4CCC(=O)NC4=O)C5=O)CC3)c2)CC1` (some centres unmarked) [TS445], in test [1], the IC50 is below 1 µM. Moreover, in test [2] (setting [4]), the inhibition at 10 µM was below 25% and the inhibition at 50 µM was below 25%.

In turn, `C[C@H](c1cccc2ccccc12)N1CCC(C(=O)NCc2cc(F)cc(NC(=O)N3CCN(CCCCCCCCOc4cccc5c4C(=O)N(C4CCC(=O)NC4=O)C5=O)CC3)c2)CC1` (some centres unmarked) [TS446] came in with an IC50 in test [1] above 25 µM. For the same molecule, in test [2] (setting [4]), the inhibition at 10 µM was below 50% and the inhibition at 50 µM is above 75%.

On to `C[C@H](c1cccc2ccccc12)N1CCC(C(=O)NCc2cc(F)cc(NC(=O)N3CCN(CCCCCCNC(=O)COc4ccc(C5CCC(=O)NC5=O)cc4)CC3)c2)CC1` (some centres unmarked) [TS529], for which, in test [1], the IC50 was below 10 µM. In test [2] (setting [4]), the inhibition at 10 µM was below 75% and the inhibition at 50 µM was below 75%.

`C[C@H](c1cccc2ccccc12)N1CCC(C(=O)NCc2cc(F)cc(NC(=O)N3CCN(CCCCOc4cccc5c4C(=O)N(C4CCC(=O)NC4=O)C5=O)CC3)c2)CC1` (some centres unmarked) [TS452] yielded an IC50 in test [1] below 10 µM. In addition, in test [2] (setting [4]), the inhibition at 10 µM is below 0% and the inhibition at 50 µM is below 0%.

Consider `Cc1ccc(NC(=O)CCOCCNc2ccc3c4c(cccc24)C(=O)N(C2CCC(=O)NC2=O)C3=O)cc1C(=O)N[C@H](C)c1cccc2ccccc12` (some centres unmarked) [Compound C10778H], for which, in test [1], the IC50 was above 25 µM. Further, the “Antiviral Activity, 10 uM (cell viability assay)” value in test [2] (10 uM, Vero E6 cells, MOI 0.05, 72 h, 4320 min) is “D (<25% = D)”. The “Antiviral Activity, 50 uM (cell viability assay)” value in test [2] (50 uM, Vero E6 cells, MOI 0.05, 72 h) was “E (<0% = E)”.

On to `C[C@H](c1cccc2ccccc12)N1CCC(C(=O)NCc2cc(F)cc(NC(=O)N3CCN(CCCCCCOc4ccc5c(c4)C(=O)N(C4CCC(=O)NC4=O)C5=O)CC3)c2)CC1` (some centres unmarked) [TS534], for which the IC50 in test [1] was below 10 µM. Besides, in test [2] (setting [4]), the inhibition at 10 µM is below 25% and the inhibition at 50 µM was above 75%.

`C[C@H](c1cccc2ccccc12)N1CCC(C(=O)NCc2cc(F)cc(NC(=O)N3CCN(CCOCCOCCC(=O)N4CCN(c5ccc(C6CCC(=O)NC6=O)cc5)CC4)CC3)c2)CC1` (some centres unmarked) [TS568] gave an IC50 in test [1] below 10 µM. In addition, in test [2] (setting [4]), the inhibition at 10 µM was below 25% and the inhibition at 50 µM was below 75%.

Turning to `C[C@H](c1cccc2ccccc12)N1CCC(C(=O)NCc2cc(F)cc(NC(=O)N3CCN(CCCCNC(=O)COc4ccc(N5CCC(=O)NC5=O)cc4)CC3)c2)CC1` [TS557], in test [1], the IC50 is below 10 µM. In addition, in test [2] (setting [4]), the inhibition at 10 µM is below 0% and the inhibition at 50 µM was below 0%.

In turn, `Cc1ccc(NC(=O)CCCCOc2cc3c4c(cccc4c2)C(=O)N(C2CCC(=O)NC2=O)C3=O)cc1C(=O)N[C@H](C)c1cccc2ccccc12` (some centres unmarked) [TS251] gave an IC50 in test [1] of 10 to 25 µM. In test [2] (setting [4]), the inhibition at 10 µM was below 0% and the inhibition at 50 µM is below 25%.

With `Cc1ccc(NC2CCNCC2)cc1C(=O)N[C@H](C)c1cccc(-c2ccc(CNC(=O)CCCNc3cccc4c3C(=O)N(C3CCC(=O)NC3=O)C4=O)s2)c1` (some centres unmarked) [Compound C10778I], in test [1], the IC50 is below 1 µM. Also, in test [2] (setting [4]), the inhibition at 10 µM was below 0% and the inhibition at 50 µM is below 0%.
